# Results reported in PubChem BioAssay (NCI).
#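 Values below derive from 48-hour exposures of cells grown in 96-well plates, with endpoints linearly interpolated between the two concentrations bracketing the appropriate inhibition level. The concentration for full growth arrest is given as TGI.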
# What was measured:
# Experiment in all cases: DTP human tumour cell line panel, 48 h
# OVCAR-3 ovarian = test system: OVCAR-3 ovarian
# A498 renal = test system: A498 renal
# RXF-631 renal = test system: RXF-631 renal
# SF-539 CNS = test system: SF-539 CNS
# DMS 273 small cell lung = test system: DMS 273 small cell lung
# OVCAR-5 ovarian = test system: OVCAR-5 ovarian
# 786-0 renal = test system: 786-0 renal
# HT29 colon = test system: HT29 colon
# CCRF-CEM leukemia = test system: CCRF-CEM leukemia
# M14 melanoma = test system: M14 melanoma
# K-562 leukemia = test system: K-562 leukemia
# EKVX NSCLC = test system: EKVX NSCLC
# NCI-H460 lung = test system: NCI-H460 lung
# UACC-257 melanoma = test system: UACC-257 melanoma
# A549 NSCLC = test system: A549 NSCLC
# LOX IMVI melanoma = test system: LOX IMVI melanoma
# M19-MEL melanoma = test system: M19-MEL melanoma
# CAKI-1 renal = test system: CAKI-1 renal
# NCI-H23 lung = test system: NCI-H23 lung
# HOP-62 NSCLC = test system: HOP-62 NSCLC
# SK-MEL-2 melanoma = test system: SK-MEL-2 melanoma
# HOP-92 NSCLC = test system: HOP-92 NSCLC
# SF-268 CNS = test system: SF-268 CNS
# SNB-19 CNS = test system: SNB-19 CNS
# DMS 114 small cell lung = test system: DMS 114 small cell lung
# UO-31 renal = test system: UO-31 renal
# UACC-62 melanoma = test system: UACC-62 melanoma
# OVCAR-4 ovarian = test system: OVCAR-4 ovarian
# KM12 colon = test system: KM12 colon
# COLO 205 colon = test system: COLO 205 colon
# SK-MEL-28 melanoma = test system: SK-MEL-28 melanoma
# OVCAR-8 ovarian = test system: OVCAR-8 ovarian
# SK-MEL-5 melanoma = test system: SK-MEL-5 melanoma
# HCT-15 colon = test system: HCT-15 colon
# HCC-2998 colon = test system: HCC-2998 colon
# IGROV1 ovarian = test system: IGROV1 ovarian
# HCT-116 colon = test system: HCT-116 colon
# SF-295 CNS = test system: SF-295 CNS
# TK-10 renal = test system: TK-10 renal
# DLD-1 colon = test system: DLD-1 colon
# SN12C renal = test system: SN12C renal
# RPMI-8226 leukemia = test system: RPMI-8226 leukemia
# KM20L2 colon = test system: KM20L2 colon
# NCI-H226 lung = test system: NCI-H226 lung
# SW-620 colon = test system: SW-620 colon
# MALME-3M melanoma = test system: MALME-3M melanoma
# SK-OV-3 ovarian = test system: SK-OV-3 ovarian
# SNB-78 CNS = test system: SNB-78 CNS
# U251 CNS = test system: U251 CNS
# XF 498 CNS = test system: XF 498 CNS
# ACHN renal = test system: ACHN renal
# HOP-18 NSCLC = test system: HOP-18 NSCLC
# SNB-75 CNS = test system: SNB-75 CNS
# LXFL 529 NSCLC = test system: LXFL 529 NSCLC
# MOLT-4 leukemia = test system: MOLT-4 leukemia
# RXF 393 renal = test system: RXF 393 renal
# HL-60(TB) leukemia = test system: HL-60(TB) leukemia
# NCI-H522 lung = test system: NCI-H522 lung
# MDA-MB-435 = test system: MDA-MB-435
# MDA-N = test system: MDA-N
# MDA-MB-231 breast = test system: MDA-MB-231 breast
# HS 578T breast = test system: HS 578T breast
# BT-549 breast = test system: BT-549 breast
# SR leukemia = test system: SR leukemia
# NCI/ADR-RES ovarian = test system: NCI/ADR-RES ovarian
# MCF7 breast = test system: MCF7 breast
# T-47D breast = test system: T-47D breast
# PC-3 prostate = test system: PC-3 prostate
# DU-145 prostate = test system: DU-145 prostate
structure (smiles),measurement,setting,value
CC(=O)N(/N=C\c1ccc([N+](=O)[O-])cc1)c1ccccc1,TGI,OVCAR-3 ovarian,> 100 µM
same,TGI,A498 renal,> 100 µM
same,TGI,RXF-631 renal,> 100 µM
same,TGI,SF-539 CNS,> 100 µM
same,TGI,DMS 273 small cell lung,> 100 µM
same,TGI,OVCAR-5 ovarian,> 100 µM
same,TGI,786-0 renal,> 100 µM
same,TGI,HT29 colon,> 100 µM
same,TGI,CCRF-CEM leukemia,> 100 µM
same,TGI,M14 melanoma,> 100 µM
same,TGI,K-562 leukemia,> 100 µM
same,TGI,EKVX NSCLC,> 100 µM
same,TGI,NCI-H460 lung,> 100 µM
same,TGI,UACC-257 melanoma,> 100 µM
same,TGI,A549 NSCLC,> 100 µM
same,TGI,LOX IMVI melanoma,> 100 µM
same,TGI,M19-MEL melanoma,> 100 µM
same,TGI,CAKI-1 renal,> 100 µM
same,TGI,NCI-H23 lung,> 100 µM
same,TGI,HOP-62 NSCLC,> 100 µM
same,TGI,SK-MEL-2 melanoma,> 100 µM
same,TGI,HOP-92 NSCLC,> 100 µM
same,TGI,SF-268 CNS,> 100 µM
same,TGI,SNB-19 CNS,> 100 µM
same,TGI,DMS 114 small cell lung,> 100 µM
same,TGI,UO-31 renal,> 100 µM
same,TGI,UACC-62 melanoma,> 100 µM
same,TGI,OVCAR-4 ovarian,> 100 µM
same,TGI,KM12 colon,> 100 µM
same,TGI,COLO 205 colon,> 100 µM
same,TGI,SK-MEL-28 melanoma,> 100 µM
same,TGI,OVCAR-8 ovarian,> 100 µM
same,TGI,SK-MEL-5 melanoma,> 100 µM
same,TGI,HCT-15 colon,> 100 µM
same,TGI,HCC-2998 colon,> 100 µM
same,TGI,IGROV1 ovarian,> 100 µM
same,TGI,HCT-116 colon,> 100 µM
same,TGI,SF-295 CNS,> 100 µM
same,TGI,TK-10 renal,> 100 µM
same,TGI,DLD-1 colon,> 100 µM
same,TGI,SN12C renal,> 100 µM
same,TGI,RPMI-8226 leukemia,> 100 µM
same,TGI,KM20L2 colon,> 100 µM
same,TGI,NCI-H226 lung,> 100 µM
same,TGI,SW-620 colon,> 100 µM
same,TGI,MALME-3M melanoma,> 100 µM
same,TGI,SK-OV-3 ovarian,> 100 µM
same,TGI,SNB-78 CNS,> 100 µM
same,TGI,U251 CNS,> 100 µM
same,TGI,XF 498 CNS,> 100 µM
same,TGI,ACHN renal,> 100 µM
same,TGI,HOP-18 NSCLC,> 100 µM
same,TGI,SNB-75 CNS,> 100 µM
Cn1nc(-c2ccccc2)c(C(=O)/C=C/c2ccccc2)c(N2CCCCC2)c1=O,TGI,LXFL 529 NSCLC,> 100 µM
same,TGI,RXF-631 renal,> 100 µM
same,TGI,SF-539 CNS,> 100 µM
same,TGI,DMS 273 small cell lung,> 100 µM
same,TGI,786-0 renal,> 100 µM
same,TGI,HT29 colon,69 µM
same,TGI,CCRF-CEM leukemia,> 100 µM
same,TGI,M14 melanoma,> 100 µM
same,TGI,K-562 leukemia,> 100 µM
same,TGI,EKVX NSCLC,> 100 µM
same,TGI,NCI-H460 lung,> 100 µM
same,TGI,A549 NSCLC,> 100 µM
same,TGI,LOX IMVI melanoma,> 100 µM
same,TGI,CAKI-1 renal,60.1 µM
same,TGI,NCI-H23 lung,> 100 µM
same,TGI,HOP-62 NSCLC,42.8 µM
same,TGI,HOP-92 NSCLC,86.7 µM
same,TGI,SF-268 CNS,> 100 µM
same,TGI,SNB-19 CNS,> 100 µM
same,TGI,DMS 114 small cell lung,> 100 µM
same,TGI,UO-31 renal,> 100 µM
same,TGI,UACC-62 melanoma,> 100 µM
same,TGI,COLO 205 colon,> 100 µM
same,TGI,SK-MEL-28 melanoma,62.8 µM
same,TGI,OVCAR-8 ovarian,> 100 µM
same,TGI,SK-MEL-5 melanoma,> 100 µM
same,TGI,HCT-15 colon,> 100 µM
same,TGI,IGROV1 ovarian,> 100 µM
same,TGI,HCT-116 colon,> 100 µM
same,TGI,MOLT-4 leukemia,> 100 µM
same,TGI,RXF 393 renal,73.1 µM
same,TGI,TK-10 renal,> 100 µM
same,TGI,HL-60(TB) leukemia,12.3 µM
same,TGI,DLD-1 colon,> 100 µM
same,TGI,SN12C renal,> 100 µM
same,TGI,NCI-H522 lung,> 100 µM
same,TGI,KM20L2 colon,> 100 µM
same,TGI,SW-620 colon,> 100 µM
same,TGI,SK-OV-3 ovarian,> 100 µM
same,TGI,U251 CNS,> 100 µM
same,TGI,ACHN renal,> 100 µM
same,TGI,HOP-18 NSCLC,> 100 µM
COc1ccc(Cc2cc(OC)c(OC)c(OC)c2)cc1O,TGI,LXFL 529 NSCLC,> 100 µM
same,TGI,OVCAR-3 ovarian,> 100 µM
same,TGI,A498 renal,76.8 µM
same,TGI,RXF-631 renal,> 100 µM
same,TGI,SF-539 CNS,0.041 µM
same,TGI,DMS 273 small cell lung,> 100 µM
same,TGI,OVCAR-5 ovarian,> 100 µM
same,TGI,786-0 renal,> 100 µM
same,TGI,HT29 colon,> 90.6 µM
same,TGI,CCRF-CEM leukemia,> 100 µM
same,TGI,M14 melanoma,> 100 µM
same,TGI,MDA-MB-435,> 100 µM
same,TGI,K-562 leukemia,> 100 µM
same,TGI,MDA-N,> 100 µM
same,TGI,EKVX NSCLC,> 100 µM
same,TGI,MDA-MB-231 breast,> 100 µM
same,TGI,NCI-H460 lung,> 100 µM
same,TGI,UACC-257 melanoma,> 100 µM
same,TGI,A549 NSCLC,> 100 µM
same,TGI,HS 578T breast,> 100 µM
same,TGI,LOX IMVI melanoma,> 100 µM
same,TGI,M19-MEL melanoma,> 100 µM
same,TGI,CAKI-1 renal,> 100 µM
same,TGI,NCI-H23 lung,> 100 µM
same,TGI,HOP-62 NSCLC,> 49.6 µM
same,TGI,SK-MEL-2 melanoma,> 100 µM
same,TGI,BT-549 breast,> 100 µM
same,TGI,SF-268 CNS,> 100 µM
same,TGI,SNB-19 CNS,> 100 µM
same,TGI,DMS 114 small cell lung,0.137 µM
same,TGI,UO-31 renal,> 63.2 µM
same,TGI,UACC-62 melanoma,> 73.2 µM
same,TGI,OVCAR-4 ovarian,> 100 µM
same,TGI,COLO 205 colon,> 57.1 µM
same,TGI,SK-MEL-28 melanoma,> 100 µM
same,TGI,OVCAR-8 ovarian,> 100 µM
same,TGI,SR leukemia,> 100 µM
same,TGI,NCI/ADR-RES ovarian,> 100 µM
same,TGI,SK-MEL-5 melanoma,> 37 µM
same,TGI,HCT-15 colon,> 100 µM
same,TGI,HCC-2998 colon,> 65.9 µM
same,TGI,IGROV1 ovarian,> 100 µM
same,TGI,HCT-116 colon,13.6 µM
same,TGI,MCF7 breast,> 100 µM
same,TGI,MOLT-4 leukemia,> 100 µM
same,TGI,SF-295 CNS,> 100 µM
same,TGI,RXF 393 renal,> 100 µM
same,TGI,TK-10 renal,> 100 µM
same,TGI,HL-60(TB) leukemia,> 26.6 µM
same,TGI,DLD-1 colon,> 100 µM
same,TGI,SN12C renal,> 100 µM
same,TGI,NCI-H522 lung,5.49 µM
same,TGI,T-47D breast,> 100 µM
same,TGI,PC-3 prostate,> 100 µM
same,TGI,DU-145 prostate,> 100 µM
same,TGI,RPMI-8226 leukemia,> 100 µM
same,TGI,KM20L2 colon,> 100 µM
same,TGI,NCI-H226 lung,99.4 µM
same,TGI,SW-620 colon,> 100 µM
same,TGI,MALME-3M melanoma,> 100 µM
same,TGI,SK-OV-3 ovarian,> 80.2 µM
same,TGI,U251 CNS,> 22.7 µM
same,TGI,XF 498 CNS,> 100 µM
same,TGI,ACHN renal,> 100 µM
same,TGI,HOP-18 NSCLC,> 31.6 µM
same,TGI,SNB-75 CNS,> 100 µM
